Experimental data reported in US9180094B2, “High porosity materials, scaffolds, and method of making” (The Texas A&M University System, priority 2011, dated 2015).
Blank lines part the entries; values can stand above or below the compound they belong to.

Key:
[1] = system: human mesenchymal stem cells; experiment: Cell viability with scaffold samples introduced into the medium; format: cell-based; conditions: scaffold prepared with 5 wt. % initiator in the medium, after 72 hours
Method: Said initiators are typically those with decomposition temperature ranging from between about 25 to about 100° C. Examples include but are not limited to azobis-isobutyronitrile (AIBN) and benzoyl peroxide (BPO). Preliminary tack-free time studies of polyHIPE emulsions prepared with 5 wt. % AIBN or BPO indicated a […] cure time compared with emulsions prepared with 5 wt. % ammonium persulfate. The time to cure was about 7-12 hours with an ammonium persulfate initiator (aqueous phase free radical initiator) as compared with about 1.5 hours with the AIBN or BPO (organic soluble free radical initiator).

[2] = system: cells; experiment: Cytocompatibility of cells after addition of surfactant PGPR; format: cell-based; conditions: concentrations that permit emulsification (0.1, 1.0 or 5 wt. %)
Excerpt: FIG. 3C depicts cytocompability of cells after addition of the surfactant, PGPR, at 0.1 wt. %, 1.0 wt. % or 5 wt. %;

[3] = system: human mesenchymal stem cells (hMSCs); experiment: hMSC adhesion and spreading on scaffolds and films; format: cell-based; conditions: polyHIPE scaffolds fabricated with PGPR, AIBN initiated, between 3 and 24 hours after seeding
Method: For three-dimensional scaffolds described herein, the behavior of the surfactant may be further modified to improve cell adhesion to the scaffold of cells, such as fibroblasts, mesenchymal stem cells, osteoblasts, chondrocytes, and other matrix formed cells. […] PolyHIPEs were prepared with PGPR and initiated with AIBN. When cured, as previously described, samples were sectioned using a precision diamond wafering saw. Prior to seeding with human mesenchymal stem cells (hMSCs), the polyHIPEs samples were soaked in 70% ethanol to sterilize, subjected to a wetting ladder to increase aqueous solution penetration, and incubated overnight in medium enhanced with 40 wt. % fetal bovine serum (FBS). The scaffolds were then seeded at a concentration of about 2×10^3 and 10×10^3 cells/cm^2. On scaffolds fabricated with PGPR, hMSC adhesion and spreading declined when measured between 3 and 24 hours after seeding. It was hypothesized that PGPR may be affecting protein adsorption and/or their conformation when attempting to localize on the polyHIPE scaffold. This was further analyzed on PFDMA films prepared with and without PGPR. The effect of PGPR on protein adsorption and/or conformation was confirmed at 24 hours, in which hMSC adhesion and spreading decreased on PGPR-PFDMA film specimens as compared with control (PFDMA alone) specimens. […]

[4] = Macromer viscosity; format: physicochemical
Method: Further described is a method of preparing a polyHIPE. In one form the polyHIPE is prepared with a biodegradable fumerate having ester linkages. One example is PFDMA. The method further comprises a two-step process. The first step produced an intermediate molecule as a diester intermediate. In one form the intermediate was bis-(1,2-hydroxypropyl)fumarate (FIG. 1A). The intermediate was then functionalized with methacrylate endgroups (FIG. 1B). With purification, the structure of the resulting formed material, PFDMA, was confirmed with ^1H NMR, as represented in FIG. 2. Integration ratio of methacryloyl protons to fumarate protons in the ^1H NMR spectra was confirmed and the formed structure was, in this example, a PFDMA as a single fumarate unit with two terminal methacrylate groups. The average functionalization was calculated to be greater than 80%. In some embodiments, functionalization was calculated to be at or about 83%. The methacrylate and fumarate groups provided sites for radical crosslinking as further described below. It is, in part, the crosslinking as described herein that allows cure of the HIPE at physiological temperatures.

Compound: CC(C)(C#N)N=NC(C)(C)C#N [AIBN, azobis-isobutyronitrile]
effect on cell viability [1]: Neither 5 wt. % AIBN or 5 wt. % BPO appeared to greatly effect cell viability

cytocompatibility with cells [2]: cytocompatible
Compound: polyglycerol polyricinoleate [PGPR 4125]
hMSC adhesion and spreading on scaffolds [3]: declined

Compound: propylene fumarate dimethacrylate [PFDMA]
viscosity [4]: about 125 cP

Compound: O=C(OOC(=O)c1ccccc1)c1ccccc1 [BPO, benzoyl peroxide]
effect on cell viability [1]: Neither 5 wt. % AIBN or 5 wt. % BPO appeared to greatly effect cell viability
